# What was measured:
# Format in all cases: in vivo
# [1] = test system: Chemotherapeutic agent-caused diarrhea models of Balb/c mice; assay: Examples 1-229 (Table 3): oral CDK inhibitor, relief of diarrhea caused by a chemotherapeutic agent;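 also: percent of treated mice whose diarrhea grade fell below chemotherapy-group average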
# Description: Construction of mouse animal models: Chemotherapeutic agent-caused diarrhea models of Balb/c mice were constructed according to the administration mode and frequency of the chemotherapeutic agent as shown in Table 3.
# Balb/c mice were fed for 1 week, and then divided into groups. The experiment was divided into a control group, a chemotherapeutic agent group, and a CDK inhibitor group, each of which comprised 10 mice, to perform the administration experiment, for which the administration dosage, mode, time and frequency were shown in Table 3. The control group: being intragastrically administered with the same solvent as that used in the CDK inhibitor group (the time was shown in Table 3), and then being injected/intragastrically administered with the same solvent as that used in the chemotherapeutic agent group (the administration mode was shown in Table 3): the chemotherapeutic agent group: being intragastrically administered with the same solvent as that used in the CDK inhibitor group (the time was shown in Table 3), and then being injected/intragastrically administered with the chemotherapeutic agent (the type, administration mode and dosage were shown in Table 3); the CDK inhibitor group: being intragastrically administered with the CDK inhibitor (the time was shown in Table 3), and then being administered with the chemotherapeutic agent (the mode and dosage were shown in Table 3).
# The diarrhea grading of mice was observed and recorded every day.
# [2] = test system: Chemotherapeutic agent-caused constipation models of Balb/c mice; assay: Examples 272-342 (Table 5): oral CDK inhibitor, relief of constipation caused by a chemotherapeutic agent; conditions: cycle 8 days;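 also: percent of treated mice relieved versus chemotherapy group by feces reduction rate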
# Description: Construction of mouse animal models: Chemotherapeutic agent-caused constipation models of Balb/c mice were constructed according to the administration mode and frequency of the chemotherapeutic agent as shown in Table 5.
# Balb/c mice were fed for 1 week, and then divided into groups. The experiment was divided into a control group, a chemotherapeutic agent group, and a CDK inhibitor group, each of which comprised 10 mice, to perform the administration experiment, for which the administration dosage, mode, time and frequency were shown in Table 5. The control group: being intragastrically administered with the same solvent as that used in the CDK inhibitor group (the time was shown in Table 5), and then being injected/intragastrically administered with the same solvent as that used in the chemotherapeutic agent group (the administration mode was shown in Table 5): the chemotherapeutic agent group: being intragastrically administered with the same solvent as that used in the CDK inhibitor group (the time was shown in […]), and then being injected/intragastrically administered with the chemotherapeutic agent (the type, administration mode and dosage were shown in Table 5): the CDK inhibitor group: being intragastrically administered with the CDK inhibitor (the time was shown in Table 5), and then being administered with the chemotherapeutic agent (the mode and dosage were shown in Table 5).
# (§1) Feces reduction rate (%)=(the control group−the chemotherapeutic agent group or the CDK inhibitor group)/the control group*100%
# (§2) The feces amount of mice within 3 hours was observed and recorded every day.
# [3] = test system: constipation caused by a chemotherapeutic agent in Balb/c mice; assay: Examples 406-443 (Table 8): various administration modes of the CDK inhibitor, relief of constipation caused by a chemotherapeutic agent; conditions: for Relative remission rate of other administration mode / Relative remission rate of oral administration: cycle 8 days; for improvement of constipation by oral administration, intraperitoneal injection, intramuscular injection, local administration: constipation caused by doxorubicin, etoposide, etoposide plus cisplatin, carboplatin, gemcitabine, gemcitabine plus carboplatin, under certain conditions, oral most significant;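 as to Relative remission rate of oral administration: percent of treated mice relieved versus chemotherapy group by feces reduction rate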;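 as to Relative remission rate of other administration mode: percent of treated mice relieved versus chemotherapy group by feces reduction rate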
# Description: Balb/c mice were fed for 1 week, and then divided into groups. The experiment was divided into a control group, a chemotherapeutic agent group, CDK inhibitor groups (including an oral administration group of a CDK inhibitor, an intravenous injection group of a CDK inhibitor, an intraperitoneal injection group of a CDK inhibitor, an intramuscular injection group of a CDK inhibitor, a local administration group of a CDK inhibitor), each of which comprised 10 mice, to perform the administration experiment, for which the administration dosage, mode, time and frequency were shown in Table 8. The control group: being administered with the same solvent as that used in the CDK inhibitor group (the time and mode were shown in Table 8), and then being injected/intragastrically administered with the same solvent as that used in the chemotherapeutic agent group (the administration mode was shown in Table 8): the chemotherapeutic agent group: being administered with the same solvent as that used in the CDK inhibitor group (the time and mode were shown in Table 8), and then being injected/intragastrically administered with the chemotherapeutic agent (the type, administration mode and dosage were shown in Table 8): the oral administration group of the CDK inhibitor: being intragastrically administered with the CDK inhibitor (the time was shown in Table 8), and then being administered with the chemotherapeutic agent (the mode and dosage were shown in Table 8): the intravenous injection group of the CDK inhibitor: being injected with the CDK inhibitor through tail vein (the time was shown in Table 8), and then being administered with the chemotherapeutic agent (the mode and dosage were shown in Table 8): the intraperitoneal injection group of the CDK inhibitor: being intraperitoneally injected with the CDK inhibitor (the time was shown in Table 8), and then being administered with the chemotherapeutic agent (the mode and dosage were shown in Table 8): the intramuscular injection group of the CDK inhibitor: being intramuscularly injected with the CDK inhibitor (the time was shown in Table 8), and then being administered with the chemotherapeutic agent (the mode and dosage were shown in Table 8); and the local administration group of the CDK inhibitor: the hair on the abdomen of mice was shaved (about 2 cm*2 cm), being applied with the CDK inhibitor (the time was shown in Table 8), and then being administered with the chemotherapeutic agent (the mode and dosage were shown in Table 8).
# as §1, §2
Molecule,"Relative remission rate (%) ([1]; Example 46, Fluorouracil (5-Fu) intravenous injection 175 mg/kg single, CDK inhibitor oral 250 mg/kg single 2 h before, cycle 10 days)","Relative remission rate (%) ([1]; Example 118, Irinotecan (CPT-11) intraperitoneal injection 240 mg/kg single, CDK inhibitor oral 250 mg/kg single 6 h before, cycle 7 days)","Relative remission rate (%) ([1]; Example 195, Gemcitabine 60 mg/kg and paclitaxel 10 mg/kg intravenous injection single, CDK inhibitor oral 400 mg/kg single, 0.5 h before, 8 days)","Relative remission rate (%) ([1]; Example 199, Gemcitabine 60 mg/kg and paclitaxel 10 mg/kg intravenous injection single, CDK inhibitor oral 250 mg/kg single, 2 h before, 8 days)","Relative remission rate (%) ([1]; Example 200, Gemcitabine 60 mg/kg and paclitaxel 10 mg/kg intraperitoneal injection single, CDK inhibitor oral 250 mg/kg single, 6 h before, 8 days)","Relative remission rate ([2]; Example 321, Docetaxel (DTX) oral administration 30 mg/kg single, CDK inhibitor oral 400 mg/kg single, 3 h before) [%]","Relative remission rate of other administration mode ([3]; Example 442, Gemcitabine and Carboplatin oral administration 300 (G) 200 (C) mg/kg single, CDK inhibitor local administration 400 mg/kg single, 4 h before) [%]","Relative remission rate of oral administration ([3]; Example 442, Gemcitabine and Carboplatin oral administration 300 (G) 200 (C) mg/kg single, CDK inhibitor oral 400 mg/kg single, 4 h before) [%]","Relative remission rate of other administration mode ([3]; Example 443, Gemcitabine and Carboplatin oral administration 300 (G) 200 (C) mg/kg single, CDK inhibitor local administration 400 mg/kg single, 8 h before) [%]","Relative remission rate of oral administration ([3]; Example 443, Gemcitabine and Carboplatin oral administration 300 (G) 200 (C) mg/kg single, CDK inhibitor oral 400 mg/kg single, 8 h before) [%]","improvement of constipation by oral administration, intraperitoneal injection, intramuscular injection, local administration [3]","Relative remission rate (%) ([1]; Example 73, Oxaliplatin intraperitoneal injection 20 mg/kg single, CDK inhibitor oral 10 mg/kg single 6 h before, cycle 8 days)","Relative remission rate (%) ([1]; Example 117, Irinotecan (CPT-11) intraperitoneal injection 240 mg/kg single, CDK inhibitor oral 10 mg/kg single 6 h before, cycle 7 days)","Relative remission rate ([2]; Example 322, Docetaxel (DTX) intramuscular injection 20 mg/kg single, CDK inhibitor oral 1 mg/kg single, 5 h before) [%]","Relative remission rate of other administration mode ([3]; Example 420, Etoposide (Etop1) intravenous injection 100 mg/kg single, CDK inhibitor intraperitoneal injection 100 mg/kg single, 1 h before) [%]","Relative remission rate of oral administration ([3]; Example 420, Etoposide (Etop1) intravenous injection 100 mg/kg single, CDK inhibitor oral 1 mg/kg single, 1 h before) [%]"
CC[C@H](CO)Nc1nc(NCc2ccccc2)c2ncn(C(C)C)c2n1 [Seliciclib],30,30,30,20,40,20,10,20,10,20,can significantly improve constipation,–,–,–,–,–
Roniciclib,–,–,–,–,–,–,–,–,–,–,can significantly improve constipation,30,20,10,10,20
